Results from EPA's ToxValDB 9.5 (doi:10.2903/j.efsa.2009.1415).
Converted amounts (≈) assume the structure as drawn.

Columns and labels:
Daphnia magna = settings: chronic/long-term; duration: 21 days; reproduction
Cyprinus carpio = settings: acute; duration: 96 hours; mortality
Pimephales promelas = settings: chronic/long-term; duration: 35 days; growth
Apis mellifera = settings: acute; duration: 48 hours; dermal; mortality
Anas platyrhynchos = settings: short-term; oral; feed; mortality
Typhlodromus pyri = test: LR50; higher = less toxic; settings: not reported; mortality

Question: What does the source list for `CCCOCC(=Nc1ccc(Cl)cc1C(F)(F)F)n1ccnc1` [Triflumizole]?
Answer: NOEC (Daphnia magna): 0.18 mg/L; LD50 (Rattus norvegicus; acute, oral, mortality): 1060 mg/kg-day; NOAEL (Rattus norvegicus; chronic, duration: 2 years, organ weight): 3.5 mg/kg-day; NOAEL (Rattus norvegicus; developmental, development): 10 mg/kg-day; NOAEL (Rattus norvegicus; reproduction developmental, reproduction): 4.8 mg/kg-day; NOAEL (Rattus norvegicus; subchronic, duration: 90 days, organ weight): 4.1 mg/kg-day; LC50 (Cyprinus carpio): 1.28 µg/mL (≈ 3.7 µM); NOEC (Pimephales promelas): 0.044 mg/L; LD50 (Apis mellifera): > 20 µg/piece; LD50 (Colinus virginianus; acute, oral, mortality): > 2510 mg/kg-day; NOEC (Colinus virginianus; reproduction developmental): ≥ 97.2 mg/kg-day; LC50 (Anas platyrhynchos): > 1430 mg/kg-day; LR50 (Typhlodromus pyri): 63 g/ha
